Experiments:
[1] = target: T1, beta-amyloid Aβ42 aggregates (베타아밀로이드 응집체) (Homo sapiens, UniProt P05067); test: Disaggregation of preformed beta-amyloid (Aβ42) aggregates, Thioflavin T fluorescence; format: biochemical; details: Aβ42 pre-incubated 24 h, then 24 h with compound at 37 °C; Aβ42 10 μM; ThT 45 μM
T1 construct: Amyloid β 1-42 (Aβ42) 단백질은 DMSO에 1 mM으로 녹여

[2] = system: inhibition of synaptic plasticity (LTP) by beta-amyloid (베타아밀로이드에 의한 시냅스 가소성(LTP) 억제); test: Improvement of beta-amyloid-induced inhibition of synaptic plasticity (LTP), electrophysiology in hippocampal slices; details: ICR mouse hippocampal slices; halenaquinol sulfate 10 μM 30 min, then with oligomeric beta-amyloid 1 μM for 2 h; HFS
[3] = target: T2, beta-amyloid Aβ42 (베타아밀로이드(Aβ)42) (Homo sapiens, UniProt P05067); test: Inhibition of beta-amyloid (Aβ42) aggregation, Thioflavin T fluorescence; format: biochemical; details: Aβ42 10 μM; 37 °C, 24 h; ThT 45 μM; 485 nm / 528 nm
T2 construct: Amyloid β 1-42 (Aβ42) 단백질은 DMSO에 1 mM으로 녹여
T2 sequence (P05067 672-713): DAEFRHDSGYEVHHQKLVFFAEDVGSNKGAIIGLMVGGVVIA

[4] = target: Acetylcholinesterase (AChE) (Electrophorus electricus, UniProt O42275); test: Acetylcholinesterase (AChE) inhibition, Ellman method; format: biochemical; details: acetylthiocholine substrate, DTNB, 405 nm, pH 8.2
Sequence of Acetylcholinesterase (AChE) (O42275 whole entry): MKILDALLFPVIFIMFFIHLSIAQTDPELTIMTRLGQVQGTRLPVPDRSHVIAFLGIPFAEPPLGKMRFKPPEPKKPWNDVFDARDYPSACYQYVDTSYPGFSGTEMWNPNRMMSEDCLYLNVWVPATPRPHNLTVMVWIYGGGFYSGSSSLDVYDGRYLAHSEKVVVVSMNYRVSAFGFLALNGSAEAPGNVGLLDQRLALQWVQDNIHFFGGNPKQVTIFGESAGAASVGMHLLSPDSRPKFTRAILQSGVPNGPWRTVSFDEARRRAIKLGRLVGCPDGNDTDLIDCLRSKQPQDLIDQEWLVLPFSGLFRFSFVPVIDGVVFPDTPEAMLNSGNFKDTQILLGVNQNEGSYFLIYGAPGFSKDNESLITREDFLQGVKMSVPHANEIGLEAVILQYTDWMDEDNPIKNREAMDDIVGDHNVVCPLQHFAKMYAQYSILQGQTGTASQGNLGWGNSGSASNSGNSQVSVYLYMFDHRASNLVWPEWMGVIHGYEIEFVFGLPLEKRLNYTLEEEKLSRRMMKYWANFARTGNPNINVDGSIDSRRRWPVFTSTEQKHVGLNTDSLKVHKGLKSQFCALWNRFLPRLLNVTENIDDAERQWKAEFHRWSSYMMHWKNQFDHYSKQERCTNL

T1 sequence (P05067 672-713): as the sequence (P05067 672-713) above

Halenaquinol sulfate
disaggregation of already aggregated beta-amyloid [1]: 농도 의존적으로 이미 응집된 베타아밀로이드 응집체를 분해함 | suppression of the effect of oligomeric beta-amyloid on LTP [2]: 베타아밀로이드의 효과를 유의적으로 억제 | inhibitory activity against beta-amyloid aggregation [3]: 농도 의존적으로 베타아밀로이드(10 μM)의 응집에 대해 저해활성 | IC50 [4]: 17.9 µM | inhibition of acetylcholinesterase activity [4]: 농도의존적으로 acetylcholinesterase 활성을 저해

Source: patent KR20230138688A, “Halenaquinol sulfate를 유효성분으로 포함하는 베타아밀로이드 응집으로 유발되는 질환의 예방 또는 치료용 약학적 조성물” (priority 2022, dated 2023)
